Legend:
[1] = rat, hepatocytes, 3 h, 3 µM
in vivo [2] = conditions: ICR, mouse, brain
Histone deacetylase 4 = Histone deacetylase 4 (Homo sapiens, UniProt P56524); assay: biochemical; format: cell-based
Description: Inhibition of recombinant human His6/GST-tagged HDAC4 expressed in baculovirus infected High5 insect cells using Ac-Leu-Gly-Lys(Tfa)-AMC as substrate after 24 hrs by fluorescence based assay

NCI-N87 = assay: cells; format: functional, cell-based; conditions: Homo sapiens, NCI-N87, 72 h
Description: Antiproliferative activity against human NCI-N87 cells assessed as reduction in cell growth after 72 hrs

[3] = target: Polyamine deacetylase HDAC10 (Homo sapiens, UniProt Q969S8); assay: biochemical; format: cell-based
Description: Inhibition of recombinant human His6/GST-tagged HDAC10 expressed in baculovirus infected High5 insect cells using Ac-Lys-Tyr-Lys(epsilon-acetyl)-AMC as susbtrate after 24 hrs by fluorescence based assay

[4] = mouse, in vivo
[5] = human, hepatocytes, 3 h, 3 µM
[6] = human, hepatocytes, 3 h, 3 µM; remark: listed apart in the source
Histone deacetylase 7 = Histone deacetylase 7 (Homo sapiens, UniProt Q8WUI4); assay: biochemical; format: cell-based, Sf9
[7] = mouse, in vivo, po, 50 mg/kg, 1 h
[8] = mouse, in vivo, po, 50 mg/kg, 1 h; remark: listed apart in the source
[9] = cynomolgus monkey, hepatocytes, 3 h, 3 µM
[10] = dog, hepatocytes, 3 h, 3 µM
in vivo [11] = conditions: ICR, mouse, po, 5 mg/kg
Description: Mean residence time in ICR mouse at 5 mg/kg, po after 1 hr to 24 hrs by LC-MS analysis

[12] = dog, hepatocytes, 3 h, 3 µM; remark: listed apart in the source
HT-29 [13] = format: functional, Homo sapiens; conditions: at 25 mg/kg
Description: Antitumor activity against human HT-29 cells xenografted in nude mouse assessed as reduction in tumor growth at 25 mg/kg, po qd for 21 days relative to control

HT-29 [14] = format: functional, Homo sapiens; conditions: at 100 mg/kg
Description: Antitumor activity against human HT-29 cells xenografted in nude mouse assessed as reduction in tumor growth at 100 mg/kg, po qd for 21 days relative to control

EBC-1 = assay: cells; format: functional, cell-based; conditions: Homo sapiens, EBC-1, 72 h
Description: Antiproliferative activity against human EBC1 cells assessed as reduction in cell growth after 72 hrs

T47D = assay: cells; format: functional, cell-based; conditions: Homo sapiens, 72 h
Description: Antiproliferative activity against human T47D cells assessed as reduction in cell growth after 72 hrs

[15] = human, hepatocytes, 3 h, 3 µM; remark: listed apart in the source
[16] = mouse, hepatocytes, 3 h, 3 µM
in vivo [17] = conditions: ICR, mouse, other tissue
[18] = rat, hepatocytes, 3 h, 3 µM; remark: listed apart in the source
[19] = human, hepatocytes, 3 h, 3 µM; remark: listed apart in the source
[20] = mouse, in vivo, po, 50 mg/kg, 1 h; remark: listed apart in the source
Histone deacetylase 9 = Histone deacetylase 9 (Homo sapiens, UniProt Q9UKV0); assay: biochemical; format: cell-based, Sf9
[21] = rat, hepatocytes, 3 h, 3 µM; remark: listed apart in the source
in vivo [22] = conditions: ICR, mouse, other tissue; remark: listed apart in the source
in vivo [23] = conditions: ICR, mouse, po, 5 mg/kg; remark: listed apart in the source
[24] = mouse, in vivo; remark: listed apart in the source
[25] = mouse, in vivo, po, 50 mg/kg, 1 h; remark: listed apart in the source
in vivo [26] = conditions: ICR, mouse, other tissue; remark: listed apart in the source
[27] = mouse, hepatocytes, 3 h, 3 µM; remark: listed apart in the source
in vivo [28] = conditions: ICR, mouse, po, 5 mg/kg; remark: listed apart in the source
[29] = mouse, in vivo, po, 50 mg/kg, 1 h; remark: listed apart in the source
MCF7 = assay: cells; format: functional, cell-based; conditions: Homo sapiens, MCF7, 72 h
Description: Antiproliferative activity against human MCF7 cells assessed as reduction in cell growth after 72 hrs

in vivo [30] = conditions: ICR, mouse, other tissue; remark: listed apart in the source
Histone deacetylase 11 = Histone deacetylase 11 (Homo sapiens, UniProt Q96DB2); assay: biochemical; format: cell-based
Description: Inhibition of recombinant human His6/GST-tagged HDAC11 expressed in baculovirus infected High5 insect cells using Ac-Lys-Tyr-Lys(epsilon-acetyl)-AMC as susbtrate after 24 hrs by fluorescence based assay

in vivo [31] = conditions: ICR, mouse, iv, 2 mg/kg
[32] = mouse, in vivo; remark: listed apart in the source
[33] = mouse, in vivo, po, 50 mg/kg, 1 h; remark: listed apart in the source
[34] = mouse, hepatocytes, 3 h, 3 µM; remark: listed apart in the source
[35] = dog, hepatocytes, 3 h, 3 µM; remark: listed apart in the source
[36] = rat, hepatocytes, 3 h, 3 µM; remark: listed apart in the source
[37] = human, hepatocytes, 3 h, 3 µM; remark: listed apart in the source
[38] = mouse, in vivo; remark: listed apart in the source
[39] = dog, hepatocytes, 3 h, 3 µM; remark: listed apart in the source
Histone deacetylase 5 = Histone deacetylase 5 (Homo sapiens, UniProt Q9UQL6); assay: biochemical; format: cell-based, Sf9
Description: Inhibition of recombinant N-terminal GST-tagged full length human HDAC5 expressed in baculovirus infected Sf9 cells using Ac-Leu-Gly-Lys(Tfa)-AMC as substrate after 24 hrs by fluorescence based assay

[40] = rat, hepatocytes, 3 h, 3 µM; remark: listed apart in the source
in vivo [41] = conditions: ICR, mouse, iv, 2 mg/kg; remark: listed apart in the source
[42] = cynomolgus monkey, hepatocytes, 3 h, 3 µM; remark: listed apart in the source
in vivo [43] = conditions: ICR, mouse, other tissue; remark: listed apart in the source
[44] = human, hepatocytes, 3 h, 3 µM; remark: listed apart in the source
[45] = mouse, hepatocytes, 3 h, 3 µM; remark: listed apart in the source
in vivo [46] = conditions: female, ICR, mouse, other tissue
[47] = mouse, in vivo; remark: listed apart in the source
in vivo [48] = conditions: ICR, mouse, iv, 2 mg/kg; remark: listed apart in the source
[49] = mouse, hepatocytes, 3 h, 3 µM; remark: listed apart in the source
Histone deacetylase 2 = Histone deacetylase 2 (Homo sapiens, UniProt Q92769); assay: biochemical; format: cell-based
Description: Inhibition of recombinant human His6/GST-tagged HDAC2 expressed in baculovirus infected High5 insect cells using Ac-Lys-Tyr-Lys(epsilon-acetyl)-AMC as susbtrate after 24 hrs by fluorescence based assay

[50] = dog, hepatocytes, 3 h, 3 µM; remark: listed apart in the source
[51] = target: NAD-dependent protein deacetylase sirtuin-1 (Homo sapiens, UniProt Q96EB6)
Description: Inhibition of recombinant human N-terminal GST-tagged SIRT1 expressed in Escherichia coli using Ac-Arg-His-Lys-Lys(Ac)-AMC as susbtrate after 1 hr by fluorescence based assay

HT-29 [52] = assay: cells; format: functional, cell-based; conditions: Homo sapiens, HT-29, 72 h
Description: Antiproliferative activity against human HT-29 cells assessed as reduction in cell growth after 72 hrs

[53] = target: NAD-dependent protein deacetylase sirtuin-3, mitochondrial (Homo sapiens, UniProt Q9NTG7)
Description: Inhibition of recombinant human N-terminal His-tagged SIRT3 expressed in Escherichia coli using Ac-Arg-His-Lys-Lys(Ac)-AMC as susbtrate after 2 hrs by fluorescence based assay

[54] = mouse, in vivo, iv, 10 mg/kg
in vivo [55] = conditions: female, ICR, mouse, other tissue; remark: listed apart in the source
[56] = mouse, in vivo; remark: listed apart in the source
HT-29 [57] = format: functional, Homo sapiens; conditions: at 50 mg/kg
Description: Antitumor activity against human HT-29 cells xenografted in nude mouse assessed as reduction in tumor growth at 50 mg/kg, po qd for 21 days relative to control

[58] = dog, hepatocytes, 3 h, 3 µM; remark: listed apart in the source
in vivo [59] = conditions: ICR, mouse, other tissue; remark: listed apart in the source
in vivo [60] = conditions: ICR, mouse, po, 5 mg/kg; remark: listed apart in the source
[61] = mouse, in vivo, po, 50 mg/kg, 1 h; remark: listed apart in the source
Histone deacetylase 8 = Histone deacetylase 8 (Homo sapiens, UniProt Q9BY41); assay: biochemical; format: cell-based
Description: Inhibition of recombinant human His6/GST-tagged HDAC8 expressed in baculovirus infected High5 insect cells using Ac-Lys-Tyr-Lys(epsilon-acetyl)-AMC as susbtrate after 24 hrs by fluorescence based assay

[62] = mouse, in vivo; remark: listed apart in the source
[63] = mouse, in vivo; remark: listed apart in the source
[64] = mouse, in vivo, po, 50 mg/kg, 1 h; remark: listed apart in the source
in vivo [65] = conditions: ICR, mouse, po, 5 mg/kg; remark: listed apart in the source
NCI-H1975 = assay: cells; format: functional, cell-based; conditions: Homo sapiens, NCI-H1975, 72 h
Description: Antiproliferative activity against human NCI-H1975 cells assessed as reduction in cell growth after 72 hrs

[66] = mouse, in vivo, iv, 10 mg/kg; remark: listed apart in the source
[67] = cynomolgus monkey, hepatocytes, 3 h, 3 µM; remark: listed apart in the source
MDA-MB-231 = assay: cells; format: functional, cell-based; conditions: Homo sapiens, MDA-MB-231, 72 h
Description: Antiproliferative activity against human MDA-MB-231 cells assessed as reduction in cell growth after 72 hrs

[68] = cynomolgus monkey, hepatocytes, 3 h, 3 µM; remark: listed apart in the source
in vivo [69] = conditions: ICR, mouse, po, 5 mg/kg; remark: listed apart in the source
Description: Half life in ICR mouse at 5 mg/kg, po measured up to 24 hrs by LC-MS analysis

in vivo [70] = conditions: male, ICR, mouse, other tissue
[71] = mouse, in vivo, po, 50 mg/kg, 1 h; remark: listed apart in the source
[72] = mouse, in vivo; remark: listed apart in the source
[73] = mouse, in vivo, po, 50 mg/kg, 6 h
[74] = mouse, in vivo; remark: listed apart in the source
in vivo [75] = conditions: ICR, mouse, po, 5 mg/kg; remark: listed apart in the source
[76] = cynomolgus monkey, hepatocytes, 3 h, 3 µM; remark: listed apart in the source
[77] = mouse, hepatocytes, 3 h, 3 µM; remark: listed apart in the source
in vivo [78] = conditions: ICR, mouse, iv, 2 mg/kg; remark: listed apart in the source
[79] = target: NAD-dependent protein deacetylase sirtuin-2 (Homo sapiens, UniProt Q8IXJ6)
Description: Inhibition of recombinant human N-terminal GST-tagged SIRT2 expressed in Escherichia coli using Ac-Arg-His-Lys-Lys(Ac)-AMC as susbtrate after 2 hrs by fluorescence based assay

[80] = mouse, in vivo, po, 50 mg/kg, 1 h; remark: listed apart in the source
[81] = mouse, in vivo, po, 50 mg/kg, 1 h; remark: listed apart in the source
[82] = mouse, in vivo; remark: listed apart in the source
[83] = cynomolgus monkey, hepatocytes, 3 h, 3 µM; remark: listed apart in the source
[84] = rat, hepatocytes, 3 h, 3 µM; remark: listed apart in the source
Bel-7402 = assay: cells; format: functional, cell-based; conditions: Homo sapiens, Bel-7402, 72 h
Description: Antiproliferative activity against human Bel7402 cells assessed as reduction in cell growth after 72 hrs

Histone deacetylase 1 = Histone deacetylase 1 (Homo sapiens, UniProt Q13547); assay: biochemical; format: cell-based
Sequence of Histone deacetylase 1 (Q13547 whole entry): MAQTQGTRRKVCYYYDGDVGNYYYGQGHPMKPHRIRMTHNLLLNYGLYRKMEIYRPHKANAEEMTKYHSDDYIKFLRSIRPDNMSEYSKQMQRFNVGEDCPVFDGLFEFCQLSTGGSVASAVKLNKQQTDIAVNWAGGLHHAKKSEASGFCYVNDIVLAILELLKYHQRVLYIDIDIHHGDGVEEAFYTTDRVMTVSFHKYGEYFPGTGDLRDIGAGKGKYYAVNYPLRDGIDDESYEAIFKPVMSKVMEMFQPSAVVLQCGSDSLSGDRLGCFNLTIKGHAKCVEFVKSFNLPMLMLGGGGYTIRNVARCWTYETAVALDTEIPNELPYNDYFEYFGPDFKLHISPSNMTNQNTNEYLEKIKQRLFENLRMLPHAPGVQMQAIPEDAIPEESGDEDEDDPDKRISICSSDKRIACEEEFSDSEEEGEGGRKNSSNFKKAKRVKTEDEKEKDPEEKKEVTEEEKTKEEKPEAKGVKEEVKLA
Description: Inhibition of recombinant His6/GST-tagged human HDAC1 expressed in baculovirus infected High5 insect cells using Ac-Lys-Tyr-Lys(epsilon-acetyl)-AMC as substrate after 24 hrs by fluorescence based assay

Sequence of NAD-dependent protein deacetylase sirtuin-2 (Q8IXJ6 whole entry): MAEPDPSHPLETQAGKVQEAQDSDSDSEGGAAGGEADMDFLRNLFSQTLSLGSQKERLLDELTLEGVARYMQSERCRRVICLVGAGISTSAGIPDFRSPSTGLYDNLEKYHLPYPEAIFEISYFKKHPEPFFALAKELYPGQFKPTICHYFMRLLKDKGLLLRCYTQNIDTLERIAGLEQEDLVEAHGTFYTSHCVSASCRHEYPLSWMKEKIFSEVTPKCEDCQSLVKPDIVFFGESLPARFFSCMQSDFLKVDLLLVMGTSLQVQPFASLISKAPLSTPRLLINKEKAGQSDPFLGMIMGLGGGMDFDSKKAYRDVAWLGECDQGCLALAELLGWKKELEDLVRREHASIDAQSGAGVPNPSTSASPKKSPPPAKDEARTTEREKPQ
Sequence of NAD-dependent protein deacetylase sirtuin-3, mitochondrial (Q9NTG7 whole entry): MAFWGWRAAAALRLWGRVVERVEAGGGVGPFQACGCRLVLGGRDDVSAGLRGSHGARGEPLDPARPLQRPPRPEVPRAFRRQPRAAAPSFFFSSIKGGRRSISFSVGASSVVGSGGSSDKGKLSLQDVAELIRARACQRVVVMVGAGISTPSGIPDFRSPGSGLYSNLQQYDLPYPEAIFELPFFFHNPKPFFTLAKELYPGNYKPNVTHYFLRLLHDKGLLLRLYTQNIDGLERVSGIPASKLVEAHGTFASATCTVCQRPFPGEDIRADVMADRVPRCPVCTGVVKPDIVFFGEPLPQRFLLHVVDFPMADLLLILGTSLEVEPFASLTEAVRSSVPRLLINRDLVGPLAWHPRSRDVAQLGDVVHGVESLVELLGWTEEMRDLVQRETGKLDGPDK
Sequence of NAD-dependent protein deacetylase sirtuin-1 (Q96EB6 whole entry): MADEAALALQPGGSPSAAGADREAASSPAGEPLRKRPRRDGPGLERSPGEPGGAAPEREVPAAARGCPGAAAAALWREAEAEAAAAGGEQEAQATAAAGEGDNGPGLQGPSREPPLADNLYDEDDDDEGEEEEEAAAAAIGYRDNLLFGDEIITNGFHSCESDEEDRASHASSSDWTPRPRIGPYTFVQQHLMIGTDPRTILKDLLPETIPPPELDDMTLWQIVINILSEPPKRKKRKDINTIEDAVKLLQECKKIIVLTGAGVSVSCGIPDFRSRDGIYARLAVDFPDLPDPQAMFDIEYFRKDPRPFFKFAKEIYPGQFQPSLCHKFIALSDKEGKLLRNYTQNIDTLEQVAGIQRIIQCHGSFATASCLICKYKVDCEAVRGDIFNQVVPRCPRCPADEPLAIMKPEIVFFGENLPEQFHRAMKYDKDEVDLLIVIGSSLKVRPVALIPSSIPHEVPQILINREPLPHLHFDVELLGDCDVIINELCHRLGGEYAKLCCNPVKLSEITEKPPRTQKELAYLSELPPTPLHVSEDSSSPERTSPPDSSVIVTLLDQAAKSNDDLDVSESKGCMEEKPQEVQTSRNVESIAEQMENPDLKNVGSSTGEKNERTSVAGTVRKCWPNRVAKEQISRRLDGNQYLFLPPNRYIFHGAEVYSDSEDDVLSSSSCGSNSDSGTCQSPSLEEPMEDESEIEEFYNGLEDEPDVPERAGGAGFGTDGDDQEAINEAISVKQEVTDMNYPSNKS
Sequence of Histone deacetylase 11 (Q96DB2 whole entry): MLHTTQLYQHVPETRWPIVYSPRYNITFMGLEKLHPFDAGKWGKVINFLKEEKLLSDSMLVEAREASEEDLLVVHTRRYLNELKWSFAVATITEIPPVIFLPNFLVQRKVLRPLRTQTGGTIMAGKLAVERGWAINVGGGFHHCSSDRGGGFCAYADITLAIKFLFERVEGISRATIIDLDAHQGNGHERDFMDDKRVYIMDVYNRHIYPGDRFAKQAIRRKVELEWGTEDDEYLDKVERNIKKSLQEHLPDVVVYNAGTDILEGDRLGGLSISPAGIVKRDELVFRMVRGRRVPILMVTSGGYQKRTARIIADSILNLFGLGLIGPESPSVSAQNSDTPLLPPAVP
Sequence of Histone deacetylase 2 (Q92769 whole entry): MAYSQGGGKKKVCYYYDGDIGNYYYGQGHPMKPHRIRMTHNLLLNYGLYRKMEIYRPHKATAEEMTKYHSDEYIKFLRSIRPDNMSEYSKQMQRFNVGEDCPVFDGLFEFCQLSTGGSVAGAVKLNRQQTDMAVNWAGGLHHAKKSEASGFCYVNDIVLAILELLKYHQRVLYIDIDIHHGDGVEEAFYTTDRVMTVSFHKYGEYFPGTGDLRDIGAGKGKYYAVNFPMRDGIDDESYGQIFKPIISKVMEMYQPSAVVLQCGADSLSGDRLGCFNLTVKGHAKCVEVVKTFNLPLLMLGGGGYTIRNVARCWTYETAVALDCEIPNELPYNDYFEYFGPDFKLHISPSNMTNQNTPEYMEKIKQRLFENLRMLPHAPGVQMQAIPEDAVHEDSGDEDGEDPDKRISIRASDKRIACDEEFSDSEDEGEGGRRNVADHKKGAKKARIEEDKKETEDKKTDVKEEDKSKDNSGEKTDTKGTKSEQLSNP
Sequence of Histone deacetylase 5 (Q9UQL6 whole entry): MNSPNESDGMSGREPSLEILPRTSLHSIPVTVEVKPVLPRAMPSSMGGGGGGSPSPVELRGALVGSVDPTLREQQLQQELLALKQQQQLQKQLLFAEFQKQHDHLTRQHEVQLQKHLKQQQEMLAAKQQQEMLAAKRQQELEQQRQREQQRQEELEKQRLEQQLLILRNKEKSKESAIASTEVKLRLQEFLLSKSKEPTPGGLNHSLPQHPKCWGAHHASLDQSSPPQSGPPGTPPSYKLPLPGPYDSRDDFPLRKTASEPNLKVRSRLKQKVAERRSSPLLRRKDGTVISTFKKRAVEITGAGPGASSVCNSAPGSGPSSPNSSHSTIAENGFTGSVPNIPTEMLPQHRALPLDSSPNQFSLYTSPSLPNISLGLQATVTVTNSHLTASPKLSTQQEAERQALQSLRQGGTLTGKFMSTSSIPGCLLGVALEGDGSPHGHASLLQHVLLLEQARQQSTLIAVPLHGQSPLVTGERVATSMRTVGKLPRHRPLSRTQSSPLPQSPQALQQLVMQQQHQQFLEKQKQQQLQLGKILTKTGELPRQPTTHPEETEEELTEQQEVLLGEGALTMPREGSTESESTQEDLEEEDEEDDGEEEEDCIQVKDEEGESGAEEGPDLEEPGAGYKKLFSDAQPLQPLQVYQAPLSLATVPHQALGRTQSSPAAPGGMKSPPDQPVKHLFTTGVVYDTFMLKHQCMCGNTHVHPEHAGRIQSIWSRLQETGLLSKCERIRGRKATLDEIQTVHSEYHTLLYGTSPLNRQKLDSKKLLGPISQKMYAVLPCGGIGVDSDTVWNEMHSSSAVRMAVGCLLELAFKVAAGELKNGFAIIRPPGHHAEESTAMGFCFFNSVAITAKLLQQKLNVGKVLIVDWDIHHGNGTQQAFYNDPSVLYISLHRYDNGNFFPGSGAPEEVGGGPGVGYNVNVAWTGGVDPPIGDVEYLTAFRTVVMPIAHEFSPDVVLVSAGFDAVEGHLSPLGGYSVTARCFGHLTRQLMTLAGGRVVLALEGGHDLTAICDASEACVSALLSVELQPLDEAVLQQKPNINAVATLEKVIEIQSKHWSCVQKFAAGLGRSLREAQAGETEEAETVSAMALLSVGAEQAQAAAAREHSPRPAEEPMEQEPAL
Sequence of Polyamine deacetylase HDAC10 (Q969S8 whole entry): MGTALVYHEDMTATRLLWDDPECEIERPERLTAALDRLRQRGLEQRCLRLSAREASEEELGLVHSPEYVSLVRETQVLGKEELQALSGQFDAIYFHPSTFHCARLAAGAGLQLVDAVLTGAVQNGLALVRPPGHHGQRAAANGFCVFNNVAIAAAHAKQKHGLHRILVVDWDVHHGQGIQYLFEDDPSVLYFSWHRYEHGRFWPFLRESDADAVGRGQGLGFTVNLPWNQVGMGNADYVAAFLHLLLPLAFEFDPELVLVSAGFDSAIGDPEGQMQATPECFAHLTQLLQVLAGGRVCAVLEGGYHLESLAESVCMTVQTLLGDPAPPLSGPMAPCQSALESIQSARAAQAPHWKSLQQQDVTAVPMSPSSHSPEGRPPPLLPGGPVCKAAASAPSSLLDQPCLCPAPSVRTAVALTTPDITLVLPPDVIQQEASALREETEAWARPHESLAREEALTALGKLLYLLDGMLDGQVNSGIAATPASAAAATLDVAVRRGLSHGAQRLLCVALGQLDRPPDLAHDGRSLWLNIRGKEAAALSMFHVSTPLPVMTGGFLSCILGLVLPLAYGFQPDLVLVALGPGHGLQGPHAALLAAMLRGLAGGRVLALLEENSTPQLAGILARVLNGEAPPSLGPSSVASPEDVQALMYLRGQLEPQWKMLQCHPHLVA
Sequence of Histone deacetylase 8 (Q9BY41 whole entry): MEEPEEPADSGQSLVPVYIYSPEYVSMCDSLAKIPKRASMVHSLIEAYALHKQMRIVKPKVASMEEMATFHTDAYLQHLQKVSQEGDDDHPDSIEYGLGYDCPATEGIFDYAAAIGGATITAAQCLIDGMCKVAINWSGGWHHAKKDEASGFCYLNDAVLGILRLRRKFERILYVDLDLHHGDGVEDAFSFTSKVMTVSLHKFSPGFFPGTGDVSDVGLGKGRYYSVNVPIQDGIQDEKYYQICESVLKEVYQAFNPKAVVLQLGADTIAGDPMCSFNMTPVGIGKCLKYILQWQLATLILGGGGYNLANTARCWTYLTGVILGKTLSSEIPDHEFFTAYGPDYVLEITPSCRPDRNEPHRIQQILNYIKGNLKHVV

SMILES: C[C@H](NC(=O)c1nc(-c2ncc(-c3ccccc3)s2)sc1C1CC1)c1ccc(C(=O)NO)cc1
- Drug metabolism [1]: Metabolite_Detected
- Kp (in vivo [2]): 1.17
- IC50 (Histone deacetylase 4): > 20 µM
- IC50 (NCI-N87): 28.3 nM
- IC50 [3]: 1.98 nM
- AUC [4]: 1472 ng·h/g
- Drug metabolism [5]: Metabolite_Notdetected
- Drug metabolism [6]: Metabolite_Detected
- IC50 (Histone deacetylase 7): > 20 µM
- Drug uptake [7]: Active
- Drug uptake [8]: Active
- Drug metabolism [9]: Metabolite_Detected
- Drug metabolism [10]: Metabolite_Detected
- MRT (in vivo [11]): 5.22 h
- Drug metabolism [12]: Metabolite_Notdetected
- T/C (HT-29 [13]): 60.58%
- T/C (HT-29 [14]): 37.56%
- IC50 (EBC-1): 110 nM
- IC50 (T47D): 40.8 nM
- Drug metabolism [15]: Metabolite_Detected
- Drug metabolism [16]: Metabolite_Notdetected
- Kp (in vivo [17]): 5.74
- Drug metabolism [18]: Metabolite_Notdetected
- Drug metabolism [19]: Metabolite_Detected
- Drug uptake [20]: Active
- IC50 (Histone deacetylase 9): > 20 µM
- Drug metabolism [21]: Metabolite_Detected
- Kp (in vivo [22]): 176
- Tmax at 24 h (in vivo [23]): 40.2 min
- AUC [24]: 8795 ng·h/g
- Drug uptake [25]: Active
- Kp (in vivo [26]): 14.7
- Drug metabolism [27]: Metabolite_Notdetected
- Cmax (in vivo [28]): 138 ng/mL
- Drug uptake [29]: Active
- IC50 (MCF7): 58.5 nM
- Kp (in vivo [30]): 10.2
- IC50 (Histone deacetylase 11): 77.8 nM
- half-life (in vivo [31]): 520 min
- AUC [32]: 2622 ng·h/g
- Drug uptake [33]: Active
- Drug metabolism [34]: Metabolite_Detected
- Drug metabolism [35]: Metabolite_Detected
- Drug metabolism [36]: Metabolite_Notdetected
- Drug metabolism [37]: Metabolite_Detected
- AUC [38]: 1964 ng·h/g
- Drug metabolism [39]: Metabolite_Detected
- IC50 (Histone deacetylase 5): 16.7 µM
- Drug metabolism [40]: Metabolite_Detected
- AUC(0-inf) (in vivo [41]): 1250 ng·h/mL
- Drug metabolism [42]: Metabolite_Detected
- Kp (in vivo [43]): 7.84
- Drug metabolism [44]: Metabolite_Notdetected
- Drug metabolism [45]: Metabolite_Detected
- Kp (in vivo [46]): 3.28
- AUC [47]: 6079 ng·h/g
- MRT (in vivo [48]): 10.4 h
- Drug metabolism [49]: Metabolite_Detected
- IC50 (Histone deacetylase 2): 13.3 nM
- Drug metabolism [50]: Metabolite_Notdetected
- IC50 [51]: > 20 µM
- IC50 (HT-29 [52]): 166 nM
- IC50 [53]: > 20 µM
- Drug uptake [54]: Active
- Kp (in vivo [55]): 4.38
- AUC [56]: 105642 ng·h/g
- T/C (HT-29 [57]): 59.72%
- Drug metabolism [58]: Metabolite_Detected
- Kp (in vivo [59]): 8.66
- bioavailability (in vivo [60]): 34 to 34.4%
- Drug uptake [61]: Active
- IC50 (Histone deacetylase 8): 16.8 nM
- AUC [62]: 3438 ng·h/g
- AUC [63]: 4692 ng·h/g
- Drug uptake [64]: Active
- AUC(0-t) (in vivo [65]): 924 ng·h/mL
- IC50 (NCI-H1975): 66.4 nM
- Drug uptake [66]: Active
- Drug metabolism [67]: Metabolite_Detected
- IC50 (MDA-MB-231): 76.6 nM
- Drug metabolism [68]: Metabolite_Notdetected
- half-life at 24 h (in vivo [69]): 254 min
- Kp (in vivo [70]): 2.46
- Drug uptake [71]: Active
- AUC [72]: 698 ng·h/g
- Drug uptake [73]: Active
- AUC [74]: 5185 ng·h/g
- AUC(0-inf) (in vivo [75]): 944 ng·h/mL
- Drug metabolism [76]: Metabolite_Detected
- Drug metabolism [77]: Metabolite_Detected
- AUC(0-t) (in vivo [78]): 1080 ng·h/mL
- IC50 [79]: > 20 µM
- Drug uptake [80]: Active
- Drug uptake [81]: Active
- AUC [82]: 599 ng·h/g
- Drug metabolism [83]: Metabolite_Notdetected
- Drug metabolism [84]: Metabolite_Detected
- IC50 (Bel-7402): 80.8 nM

SMILES: O=C(NO)c1ccc(C2(NC(=O)c3nc(-c4nccs4)sc3C3CC3)CC2)cc1
- IC50 (Histone deacetylase 1): 22.3 nM

SMILES: CC(C)Cc1sc(-c2nccs2)nc1C(=O)Nc1ccc(/C=C/C(=O)NO)cc1
- IC50 (Histone deacetylase 1): 660 nM

SMILES: CC(C)(NC(=O)c1nc(-c2nccs2)sc1C1CC1)c1ccc(C(=O)NO)cc1
- IC50 (Histone deacetylase 1): 163 nM

SMILES: Cc1[nH]c2ccccc2c1CCNCc1ccc(/C=C/C(=O)NO)cc1 [PANOBINOSTAT]
- IC50 (MCF7): 9 nM
- IC50 [51]: > 20 µM
- IC50 [53]: > 20 µM
- T/C (HT-29 [57]): 93.85%
- IC50 [79]: > 20 µM

Reference: ChEMBL document CHEMBL4354838, “Synthesis and in Vitro and in Vivo Biological Evaluation of Tissue-Specific Bisthiazole Histone Deacetylase (HDAC) Inhibitors” (J Med Chem, 2020)
